ChEMBL document CHEMBL3832545, “DailyMed|setid=29481887-34eb-460a-bd7f-b8755473065a | EXELON - rivastigmine patch, extended release|Physicians Total Care, Inc”

Tests used:
Assay type in all cases: ADME, organism-based
[1] = (§1) Evaluation of the pharmacokinetic parameters for Rivastigmine 0.5 to 1 hour after administration of 9.5 mg/24 hours Rivastigmine transdermal system (Exelon patch).; conditions: human, in vivo, topical or ocular, dosed compound id 5, dosed compound name RIVASTIGMINE, regimen Single dose, sampling time1 0.5-1 hr, study dosing duration 24 hr, tissue Plasma
Homo sapiens [2] = assay: as §1; conditions: in vivo, topical_or_ocular, dosed compound id 5, dosed compound name RIVASTIGMINE, regimen Single dose, sampling time1 0.5-1 hr, study dosing duration 24 hr
Homo sapiens [3] = assay: Evaluation of the pharmacokinetic parameters for Rivastigmine following multiple oral administration of 6 mg Rivastigmine tablets.; conditions: in vivo, dosed compound id 5, dosed compound name RIVASTIGMINE, regimen Twice daily, tissue Plasma

With CCN(C)C(=O)Oc1cccc([C@H](C)N(C)C)c1 [RIVASTIGMINE] the CL renal ([1]; 9.5 mg/24 hours) was 35 to 46.7 mL/min, the fraction unbound ([1]; at 9.5 mg, read-out: Protein binding (converted)) was 0.6 and the Tmax (Homo sapiens [2]; tissue Cerebrospinal Fluid (CSF)) was 1.4 to 2.6 h. The Tmax (Homo sapiens [2]; tissue Plasma) was 8 h, the Vd (Homo sapiens [2]; tissue Plasma) was 1.8 to 2.7 L/kg and the “Ratio AUC(inf)” value (Homo sapiens [3]) was 3.5.
